Experimental data published in patent US8716292B2, “Riminophenazines with 2-(heteroaryl)amino substituents and their anti-microbial activity” (priority 2010, dated 2014).
≈ marks a conversion by molar mass, not a printed value.

system: Mycobacterium tuberculosis H37Rv strains; assay: In vitro assay for antimicrobial susceptibility (microplate Alamar blue MIC); assay type: cell-based; settings: Mycobacterium tuberculosis, H37RV, 7H9, Alamar blue, inhibition ≧90%; read-out: MIC (μg/mL) against H37Rv

SMILES | MIC
CC(C)/N=c1\cc2n(-c3ccc(OC(F)(F)F)cc3)c3ccccc3nc-2cc1Nc1ncccn1 [TBI-951, 5-(4-Trifluoromethoxyphenyl)-3-(1-methylethyl)imino-2-(pyrimidin-2-yl)amino-3,5-dihydrophenazine] | 0.019 µg/mL (≈ 0.0387 µM)
CC(C)/N=c1\cc2n(-c3ccc(OC(F)(F)F)cc3)c3ccccc3nc-2cc1Nc1ccccn1 [TBI-952, 5-(4-Trifluoromethoxyphenyl)-3-(1-methylethyl)imino-2-(2-pyridyl)amino-3,5-dihydrophenazine] | 0.093 µg/mL (≈ 0.19 µM)
CC(C)/N=c1\cc2n(-c3ccc(OC(F)(F)F)cc3)c3ccccc3nc-2cc1Nc1cnccn1 [TBI-953, 5-(4-Trifluoromethoxyphenyl)-3-(1-methylethyl)imino-2-(pyrazin-2-yl)amino-3,5-dihydrophenazine] | 0.015 µg/mL (≈ 0.0306 µM)
CC(C)/N=c1\cc2n(-c3ccc(OC(F)(F)F)cc3)c3ccccc3nc-2cc1Nc1ncccc1[N+](=O)[O-] [TBI-954, 5-(4-Trifluoromethoxyphenyl)-3-(1-methylethyl)imino-2-(3-nitro-2-pyridyl)amino-3,5-dihydrophenazine] | 0.03 µg/mL (≈ 0.0561 µM)
Clc1ccc(-n2c3c/c(=N\C4CCOCC4)c(Nc4cncnc4)cc-3nc3ccccc32)cc1 [TBI-960, 5-(4-Chlorophenyl)-3-(4-tetrahydropyranyl)imino-2-(pyrimidin-5-yl)amino-3,5-dihydrophenazine] | 0.03 µg/mL (≈ 0.0621 µM)
Clc1ccc(-n2c3c/c(=N\C4CCCCC4)c(Nc4cncnc4)cc-3nc3ccccc32)cc1 [TBI-961, 5-(4-Chlorophenyl)-3-cyclohexylimino-2-(pyrimidin-5-yl)amino-3,5-dihydrophenazine] | 0.015 µg/mL (≈ 0.0312 µM)
Clc1cccc(-n2c3c/c(=N\C4CCOCC4)c(Nc4cncnc4)cc-3nc3ccccc32)c1 [TBI-980, 5-(3-Chlorophenyl)-3-(4-tetrahydropyranyl)imino-2-(pyrimidin-5-yl)amino-3,5-dihydrophenazine] | 0.06 µg/mL (≈ 0.124 µM)

same assay, conditions: Mycobacterium tuberculosis, H37RV, in vitro, Mycobacterium tuberculosis H37Rv strains; read-out: MIC (μg/mL) against H37Rv

SMILES | MIC
Cc1ccc(Nc2cc3nc4ccccc4n(-c4ccc(Cl)c(Cl)c4)c-3c/c2=N\C2CCOCC2)cn1 [TBI-945, 5-(3,4-Dichlorophenyl)-3-(4-tetrahydropyranyl)imino-2-(6-methyl-3-pyridyl)amino-3,5-dihydrophenazine] | 0.25 µg/mL (≈ 0.471 µM)
COc1ncccc1Nc1cc2nc3ccccc3n(-c3ccc(Cl)c(Cl)c3)c-2c/c1=N\C1CCC1 [TBI-946, 5-(3,4-Dichlorophenyl)-3-cyclobutylimino-2-(2-methoxy-3-pyridyl)amino-3,5-dihydrophenazine] | 0.06 µg/mL (≈ 0.116 µM)
COc1ncccc1Nc1cc2nc3ccccc3n(-c3ccc(Cl)cc3Cl)c-2c/c1=N\C1CCOCC1 [TBI-947, 5-(2,4-Dichlorophenyl)-3-(4-tetrahydropyranyl)imino-2-(2-methoxy-3-pyridyl)amino-3,5-dihydrophenazine] | 0.06 µg/mL (≈ 0.11 µM)
Cc1ccc(Nc2cc3nc4ccccc4n(-c4ccc(Cl)c(Cl)c4)c-3c/c2=N\C2CCC2)cn1 [TBI-948, 5-(3,4-Dichlorophenyl)-3-cyclobutylimino-2-(6-methyl-3-pyridyl)amino-3,5-dihydrophenazine] | 0.125 µg/mL (≈ 0.25 µM)
Cc1ccc(Nc2cc3nc4ccc(F)cc4n(-c4ccc(Cl)c(Cl)c4)c-3c/c2=N\C2CCOCC2)cn1 [TBI-949, 7-Fluoro-5-(3,4-dichlorophenyl)-3-(4-tetrahydropyranyl)imino-2-(6-methyl-3-pyridyl)amino-3,5-dihydrophenazine] | 0.816 µg/mL (≈ 1.49 µM)
Cc1ccc(Nc2cc3nc4ccccc4n(-c4ccc(OC(F)(F)F)cc4)c-3c/c2=N\C2CCOCC2)cn1 [TBI-950, 5-(4-Trifluoromethoxyphenyl)-3-(4-tetrahydropyranyl)imino-2-(6-methyl-3-pyridyl)amino-3,5-dihydrophenazine] | 0.035 µg/mL (≈ 0.0642 µM)
COC1CCC(/N=c2\cc3n(-c4ccc(F)cc4)c4ccccc4nc-3cc2Nc2ccc(C)nc2)CC1 (stereo not drawn) [TBI-1001, 5-(4-Fluorophenyl)-3-(4-methoxycyclohexyl)imino-2-(6-methyl-3-pyridyl)amino-3,5-dihydrophenazine] | 0.06 µg/mL (≈ 0.118 µM)
COc1ncccc1Nc1cc2nc3ccccc3n(-c3ccc(F)cc3)c-2c/c1=N\C1CCOCC1 [TBI-1003, 5-(4-Fluorophenyl)-3-(4-tetrahydropyranyl)imino-2-(2-methoxy-3-pyridyl)amino-3,5-dihydrophenazine] | 0.039 µg/mL (≈ 0.0787 µM)
COc1ncccc1Nc1cc2nc3ccccc3n(-c3ccc(F)cc3)c-2c/c1=N\C1CCN(C)CC1 [TBI-1005, 5-(4-Fluorophenyl)-3-(N-methyl-4-piperidyl)imino-2-(2-methoxy-3-pyridyl)amino-3,5-dihydrophenazine] | 0.213 µg/mL (≈ 0.419 µM)
COc1ncccc1Nc1cc2nc3ccccc3n(-c3ccc(F)cc3)c-2c/c1=N\C1CCC(O)CC1 (stereo not drawn) [TBI-1008, 5-(4-Fluorophenyl)-3-(4-hydroxycyclohexyl)imino-2-(2-methoxy-3-pyridyl)amino-3,5-dihydrophenazine] | 0.248 µg/mL (≈ 0.487 µM)
COc1ncccc1Nc1cc2nc3ccccc3n(-c3ccc(F)cc3)c-2c/c1=N\C1CCCCC1 [TBI-1009, 5-(4-Fluorophenyl)-3-cyclohexylimino-2-(2-methoxy-3-pyridyl)amino-3,5-dihydrophenazine] | 0.03 µg/mL (≈ 0.0608 µM)
Cc1ncccc1Nc1cc2nc3ccccc3n(-c3ccc(F)cc3)c-2c/c1=N\C1CCOCC1 [TBI-1012, 5-(4-Fluorophenyl)-3-(4-tetrahydropyranyl)imino-2-(2-methyl-3-pyridyl)amino-3,5-dihydrophenazine] | 0.026 µg/mL (≈ 0.0542 µM)
COC1CCC(/N=c2\cc3n(-c4ccc(F)cc4)c4ccccc4nc-3cc2Nc2cccnc2C)CC1 (stereo not drawn) [TBI-1013, 5-(4-Fluorophenyl)-3-(4-methoxycyclohexyl)imino-2-(2-methyl-3-pyridyl)amino-3,5-dihydrophenazine] | 0.019 µg/mL (≈ 0.0374 µM)
Cc1ncccc1Nc1cc2nc3ccccc3n(-c3ccc(F)cc3)c-2c/c1=N\C1CC1 [TBI-1014, 5-(4-Fluorophenyl)-3-cyclopropylimino-2-(2-methyl-3-pyridyl)amino-3,5-dihydrophenazine] | 0.025 µg/mL (≈ 0.0574 µM)
Cc1ncccc1Nc1cc2nc3ccccc3n(-c3ccc(F)cc3)c-2c/c1=N\C1CCC(O)CC1 (stereo not drawn) [TBI-1015, 5-(4-Fluorophenyl)-3-(4-hydroxycyclohexyl)imino-2-(2-methyl-3-pyridyl)amino-3,5-dihydrophenazine] | 0.387 µg/mL (≈ 0.784 µM)
COc1ncccc1Nc1cc2nc3ccccc3n(-c3ccc(F)cc3)c-2c/c1=N\C1CCC1 [TBI-1016, 5-(4-Fluorophenyl)-3-cyclobutylimino-2-(2-methoxy-3-pyridyl)amino-3,5-dihydrophenazine] | 0.037 µg/mL (≈ 0.0795 µM)

SMILES | MIC
Cc1ccc(Nc2cc3nc4ccccc4n(-c4ccc(F)cc4)c-3c/c2=N\C2CCC2)cn1 [TBI-1017] | 0.056 µg/mL (≈ 0.125 µM)
Cc1ncccc1Nc1cc2nc3ccccc3n(-c3ccc(F)cc3)c-2c/c1=N\C1CCC1 [TBI-1018, 5-(4-Fluorophenyl)-3-cyclobutylimino-2-(2-methyl-3-pyridyl)amino-3,5-dihydrophenazine] | 0.028 µg/mL (≈ 0.0623 µM)
CC(C)/N=c1\cc2n(-c3cccc(OC(F)(F)F)c3)c3ccccc3nc-2cc1Nc1cccnc1 [TBI-1019] | 0.057 µg/mL (≈ 0.116 µM)
FC(F)(F)Oc1cccc(-n2c3c/c(=N\C4CCOCC4)c(Nc4cccnc4)cc-3nc3ccccc32)c1 [TBI-1020, 5-(3-Trifluoromethoxyphenyl)-3-(4-tetrahydropyranyl)imino-2-(3-pyridyl)amino-3,5-dihydrophenazine] | 0.058 µg/mL (≈ 0.109 µM)
FC(F)(F)Oc1cccc(-n2c3c/c(=N\C4CC4)c(Nc4cccnc4)cc-3nc3ccccc32)c1 [TBI-1021, 5-(3-Trifluoromethoxyphenyl)-3-cyclopropylimino-2-(3-pyridyl)amino-3,5-dihydrophenazine] | 0.054 µg/mL (≈ 0.111 µM)
FC(F)(F)Oc1cccc(-n2c3c/c(=N\C4CCCCC4)c(Nc4cccnc4)cc-3nc3ccccc32)c1 [TBI-1022, 5-(3-Trifluoromethoxyphenyl)-3-cyclohexylimino-2-(3-pyridyl)amino-3,5-dihydrophenazine] | 0.074 µg/mL (≈ 0.14 µM)
Cc1ncccc1Nc1cc2nc3ccccc3n(-c3ccc(F)cc3)c-2c/c1=N\C1CCCCC1 [TBI-1023, 5-(4-Fluorophenyl)-3-cyclohexylimino-2-(2-methyl-3-pyridyl)amino-3,5-dihydrophenazine] | 0.0075 µg/mL (≈ 0.0157 µM)
COC1CCC(/N=c2\cc3n(-c4cccc(OC(F)(F)F)c4)c4ccccc4nc-3cc2Nc2cccnc2)CC1 (stereo not drawn) [TBI-1024, 5-(3-Trifluoromethoxyphenyl)-3-(4-methoxycyclohexyl)imino-2-(3-pyridyl)amino-3,5-dihydrophenazine] | 0.112 µg/mL (≈ 0.2 µM)
Cc1cncc(Nc2cc3nc4ccccc4n(-c4ccc(F)cc4)c-3c/c2=N\C(C)C)c1 [TBI-1025, 5-(4-Fluorophenyl)-3-(1-methylethyl)imino-2-(5-methyl-3-pyridyl)amino-3,5-dihydrophenazine] | 0.122 µg/mL (≈ 0.279 µM)
COC1CCC(/N=c2\cc3n(-c4ccc(F)cc4)c4ccccc4nc-3cc2Nc2cncc(C)c2)CC1 (stereo not drawn) [TBI-1026] | 0.121 µg/mL (≈ 0.238 µM)
FC(F)(F)Oc1cccc(-n2c3c/c(=N\C4CCC4)c(Nc4cccnc4)cc-3nc3ccccc32)c1 [TBI-1027, 5-(3-Trifluoromethoxyphenyl)-3-cyclobutylimino-2-(3-pyridyl)amino-3,5-dihydrophenazine] | 0.383 µg/mL (≈ 0.764 µM)
Cc1cncc(Nc2cc3nc4ccccc4n(-c4ccc(F)cc4)c-3c/c2=N\C2CCOCC2)c1 [TBI-1028, 5-(4-Fluorophenyl)-3-(4-tetrahydropyranyl)imino-2-(5-methyl-3-pyridyl)amino-3,5-dihydrophenazine] | 0.06 µg/mL (≈ 0.125 µM)
Cc1cncc(Nc2cc3nc4ccccc4n(-c4ccc(F)cc4)c-3c/c2=N\C2CCCCC2)c1 [TBI-1029, 5-(4-Fluorophenyl)-3-cyclohexylimino-2-(5-methyl-3-pyridyl)amino-3,5-dihydrophenazine] | 0.027 µg/mL (≈ 0.0565 µM)
Cc1cncc(Nc2cc3nc4ccccc4n(-c4ccc(F)cc4)c-3c/c2=N\C2CC2)c1 [TBI-1030, 5-(4-Fluorophenyl)-3-cyclopropylimino-2-(5-methyl-3-pyridyl)amino-3,5-dihydrophenazine] | 0.012 µg/mL (≈ 0.0276 µM)
Cc1cncc(Nc2cc3nc4ccccc4n(-c4ccc(F)cc4)c-3c/c2=N\C2CCC2)c1 [TBI-1031] | 0.028 µg/mL (≈ 0.0623 µM)
Cc1ncccc1Nc1cc2nc3ccccc3n(-c3cccc(OC(F)(F)F)c3)c-2c/c1=N\C(C)C [TBI-1032, 5-(3-Trifluoromethoxyphenyl)-3-(1-methylethyl)imino-2-(2-methyl-3-pyridyl)amino-3,5-dihydrophenazine] | 0.107 µg/mL (≈ 0.213 µM)
